From ChEMBL document CHEMBL4400520, “Benzofuran-isatin-imine hybrids tethered via different length alkyl linkers: Design, synthesis and in vitro evaluation of anti-tubercular and anti-bacterial activities as well as cytotoxicity” (Eur J Med Chem, 2019)
≈ marks a conversion by molar mass, not a printed value.

Assays:
[1] = test system: Mycobacterium tuberculosis; experiment: Antitubercular activity against Mycobacterium tuberculosis H37Rv; format: functional
[2] = Cytotoxicity against African green monkey Vero cells assessed as reduction in cell viability after 72 hrs by MTT assay; format: cell-based; conditions: chlorocebus sabaeus, Vero cells
[3] = Selectivity index, ratio of CC50 for African green monkey Vero cells to MIC for Mycobacterium tuberculosis H37Rv; format: toxicity; conditions: read-out: Selectivity Index
[4] = test system: Staphylococcus epidermidis; experiment: Antibacterial activity against methicillin-sensitive Staphylococcus epidermidis; format: functional
[5] = test system: Staphylococcus epidermidis; experiment: Antibacterial activity against methicillin-resistant Staphylococcus epidermidis; format: functional
[6] = test system: Staphylococcus aureus; experiment: Antibacterial activity against methicillin-sensitive Staphylococcus aureus; format: functional
[7] = test system: Staphylococcus aureus; experiment: Antibacterial activity against methicillin-resistant Staphylococcus aureus; format: functional
[8] = test system: Enterococcus faecalis; experiment: Antibacterial activity against Enterococcus faecalis; format: functional
[9] = test system: Enterococcus faecium; experiment: Antibacterial activity against Enterococcus faecium; format: functional
[10] = test system: Escherichia coli; experiment: Antibacterial activity against Escherichia coli; format: functional
[11] = test system: Klebsiella pneumoniae; experiment: Antibacterial activity against Klebsiella pneumoniae; format: functional
[12] = test system: Pseudomonas aeruginosa; experiment: Antibacterial activity against Pseudomonas aeruginosa ATCC 27853; format: functional
[13] = test system: Acinetobacter calcoaceticus; experiment: Antibacterial activity against Acinetobacter calcoaceticus; format: functional
[14] = test system: Enterobacter cloacae; experiment: Antibacterial activity against Enterobacter cloacae; format: functional
[15] = test system: Klebsiella aerogenes; experiment: Antibacterial activity against Enterobacter aerogenes; format: functional
[16] = test system: Proteus mirabilis; experiment: Antibacterial activity against Proteus mirabilis; format: functional
[17] = test system: Citrobacter freundii; experiment: Antibacterial activity against Citrobacter freundii; format: functional

| Compound | MIC [1] [mg/L] | CC50 at 72 h [2] [mg/L] | selectivity ratio [3] | MIC90 [4] [mg/L] | MIC90 [5] [mg/L] | MIC90 [6] [mg/L] | MIC90 [7] [mg/L] | MIC90 [8] [mg/L] | MIC90 [9] [mg/L] | MIC90 [10] [mg/L] | MIC90 [11] [mg/L] | MIC90 [12] [mg/L] | MIC90 [13] [mg/L] | MIC90 [14] [mg/L] | MIC90 [15] [mg/L] | MIC90 [16] [mg/L] | MIC90 [17] [mg/L] |
| --- | --- | --- | --- | --- | --- | --- | --- | --- | --- | --- | --- | --- | --- | --- | --- | --- | --- |
| CCOC(=O)c1c(-c2ccc(OC)cc2)oc2ccc(OCCCCCN3C(=O)/C(=N\OC)c4cc(F)ccc43)cc12 | < 0.016 | 32 (≈ 55.7 µM) | > 2000 | 0.5 (≈ 0.87 µM) | 4 (≈ 6.96 µM) | 4 (≈ 6.96 µM) | 2 (≈ 3.48 µM) | 1 (≈ 1.74 µM) | 16 (≈ 27.8 µM) | 0.125 (≈ 0.218 µM) | 0.5 (≈ 0.87 µM) | 1 (≈ 1.74 µM) | 1 (≈ 1.74 µM) | 2 (≈ 3.48 µM) | 0.125 (≈ 0.218 µM) | 0.06 (≈ 0.104 µM) | 0.125 (≈ 0.218 µM) |
| CCO/N=C1\C(=O)N(CCCOc2ccc3oc(-c4ccc(OC)cc4)c(C(=O)OCC)c3c2)c2ccc(OC)cc21 | < 0.016 | 32 (≈ 55.9 µM) | > 4000 | 1 (≈ 1.75 µM) | 8 (≈ 14 µM) | 4 (≈ 6.99 µM) | 8 (≈ 14 µM) | 8 (≈ 14 µM) | 64 (≈ 112 µM) | 0.5 (≈ 0.873 µM) | 2 (≈ 3.49 µM) | 4 (≈ 6.99 µM) | 4 (≈ 6.99 µM) | 1 (≈ 1.75 µM) | 2 (≈ 3.49 µM) | 4 (≈ 6.99 µM) | 2 (≈ 3.49 µM) |
| CCOC(=O)c1c(-c2ccc(OC)cc2)oc2ccc(OCCCCCCN3C(=O)/C(=N\NC(N)=S)c4ccccc43)cc12 | < 0.016 | 8 (≈ 13 µM) | > 500 | 1 (≈ 1.63 µM) | 4 (≈ 6.51 µM) | 1 (≈ 1.63 µM) | 0.5 (≈ 0.813 µM) | 1 (≈ 1.63 µM) | 64 (≈ 104 µM) | 1 (≈ 1.63 µM) | 8 (≈ 13 µM) | 4 (≈ 6.51 µM) | 4 (≈ 6.51 µM) | 1 (≈ 1.63 µM) | 2 (≈ 3.25 µM) | 1 (≈ 1.63 µM) | 2 (≈ 3.25 µM) |
| CCOC(=O)c1c(-c2ccc(OC)cc2)oc2ccc(OCCCCCN3C(=O)/C(=N\OC)c4ccccc43)cc12 | 0.049 (≈ 0.088 µM) | 32 (≈ 57.5 µM) | 1030 | 0.5 (≈ 0.898 µM) | 4 (≈ 7.19 µM) | 2 (≈ 3.59 µM) | 4 (≈ 7.19 µM) | 4 (≈ 7.19 µM) | 32 (≈ 57.5 µM) | 0.25 (≈ 0.449 µM) | 2 (≈ 3.59 µM) | 1 (≈ 1.8 µM) | 1 (≈ 1.8 µM) | 0.25 (≈ 0.449 µM) | 1 (≈ 1.8 µM) | 0.5 (≈ 0.898 µM) | 1 (≈ 1.8 µM) |
| CCO/N=C1\C(=O)N(CCCCCOc2ccc3oc(-c4ccc(OC)cc4)c(C(=O)OCC)c3c2)c2ccc(OC)cc21 | 0.156 (≈ 0.26 µM) | 16 (≈ 26.6 µM) | 102 | 1 (≈ 1.66 µM) | 4 (≈ 6.66 µM) | 1 (≈ 1.66 µM) | 1 (≈ 1.66 µM) | 1 (≈ 1.66 µM) | 16 (≈ 26.6 µM) | 0.125 (≈ 0.208 µM) | 2 (≈ 3.33 µM) | 2 (≈ 3.33 µM) | 2 (≈ 3.33 µM) | 0.06 (≈ 0.0999 µM) | 0.125 (≈ 0.208 µM) | 0.06 (≈ 0.0999 µM) | 0.125 (≈ 0.208 µM) |
| CCO/N=C1\C(=O)N(CCCOc2ccc3oc(-c4ccc(OC)cc4)c(C(=O)OCC)c3c2)c2ccccc21 | < 0.016 | 16 (≈ 29.5 µM) | > 8000 | 1 (≈ 1.84 µM) | 8 (≈ 14.7 µM) | 8 (≈ 14.7 µM) | 4 (≈ 7.37 µM) | 4 (≈ 7.37 µM) | 16 (≈ 29.5 µM) | 0.5 (≈ 0.922 µM) | 1 (≈ 1.84 µM) | 4 (≈ 7.37 µM) | 2 (≈ 3.69 µM) | 4 (≈ 7.37 µM) | 1 (≈ 1.84 µM) | 2 (≈ 3.69 µM) | 2 (≈ 3.69 µM) |
| CCOC(=O)c1c(-c2ccc(OC)cc2)oc2ccc(OCCCN3C(=O)/C(=N\OC)c4ccccc43)cc12 | < 0.016 | 128 (≈ 242 µM) | > 1000 | 0.5 (≈ 0.946 µM) | 1 (≈ 1.89 µM) | 4 (≈ 7.57 µM) | 4 (≈ 7.57 µM) | 4 (≈ 7.57 µM) | 32 (≈ 60.5 µM) | 0.25 (≈ 0.473 µM) | 1 (≈ 1.89 µM) | 2 (≈ 3.78 µM) | 1 (≈ 1.89 µM) | 0.5 (≈ 0.946 µM) | 1 (≈ 1.89 µM) | 0.5 (≈ 0.946 µM) | 1 (≈ 1.89 µM) |
| CCOC(=O)c1c(-c2ccccc2)oc2ccc(OCCCN3C(=O)/C(=N\OC)c4ccccc43)cc12 | < 0.016 | 64 (≈ 128 µM) | > 2000 | 0.125 (≈ 0.251 µM) | 0.5 (≈ 1 µM) | 8 (≈ 16 µM) | 2 (≈ 4.01 µM) | 1 (≈ 2.01 µM) | 8 (≈ 16 µM) | 0.25 (≈ 0.501 µM) | 0.5 (≈ 1 µM) | 1 (≈ 2.01 µM) | 1 (≈ 2.01 µM) | 2 (≈ 4.01 µM) | 0.25 (≈ 0.501 µM) | 0.5 (≈ 1 µM) | 0.5 (≈ 1 µM) |
| CCO/N=C1\C(=O)N(CCCCCCOc2ccc3oc(-c4ccc(OC)cc4)c(C(=O)OCC)c3c2)c2ccccc21 | < 0.016 | 16 (≈ 27.4 µM) | > 1000 | 1 (≈ 1.71 µM) | 8 (≈ 13.7 µM) | 1 (≈ 1.71 µM) | 1 (≈ 1.71 µM) | 2 (≈ 3.42 µM) | 32 (≈ 54.7 µM) | 0.5 (≈ 0.855 µM) | 1 (≈ 1.71 µM) | 1 (≈ 1.71 µM) | 2 (≈ 3.42 µM) | 0.5 (≈ 0.855 µM) | 0.25 (≈ 0.428 µM) | 0.25 (≈ 0.428 µM) | 1 (≈ 1.71 µM) |
